The target in test [1] is 5-HT2Cedited (accession number AAF35842.1) (Homo sapiens, UniProt P28335, I156V/I160V/N158S). Put plainly: biochemical. The format is binding.
For test [2], the target named is human recombinant 5-HT2Cedited receptor (Homo sapiens, UniProt P28335, I156V/I160V/N158S). Kind of test: cell-based.
human recombinant 5-HT2Cedited receptor, sequence (P28335 33-458 I156V/N158S/I160V limits assumed): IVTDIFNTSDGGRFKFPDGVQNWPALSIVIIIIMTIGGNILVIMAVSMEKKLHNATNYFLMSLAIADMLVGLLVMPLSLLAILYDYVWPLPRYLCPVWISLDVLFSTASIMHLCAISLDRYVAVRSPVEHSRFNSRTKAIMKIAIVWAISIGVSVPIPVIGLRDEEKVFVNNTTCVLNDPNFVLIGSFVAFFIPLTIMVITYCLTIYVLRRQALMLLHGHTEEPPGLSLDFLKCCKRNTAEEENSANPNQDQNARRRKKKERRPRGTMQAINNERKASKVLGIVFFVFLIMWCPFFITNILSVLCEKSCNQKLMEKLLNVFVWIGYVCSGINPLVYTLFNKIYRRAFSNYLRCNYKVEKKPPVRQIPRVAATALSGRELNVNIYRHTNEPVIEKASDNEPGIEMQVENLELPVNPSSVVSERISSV

5-HT2Cedited (accession number AAF35842.1), sequence (P28335 whole entry I156V/N158S/I160V, looked up): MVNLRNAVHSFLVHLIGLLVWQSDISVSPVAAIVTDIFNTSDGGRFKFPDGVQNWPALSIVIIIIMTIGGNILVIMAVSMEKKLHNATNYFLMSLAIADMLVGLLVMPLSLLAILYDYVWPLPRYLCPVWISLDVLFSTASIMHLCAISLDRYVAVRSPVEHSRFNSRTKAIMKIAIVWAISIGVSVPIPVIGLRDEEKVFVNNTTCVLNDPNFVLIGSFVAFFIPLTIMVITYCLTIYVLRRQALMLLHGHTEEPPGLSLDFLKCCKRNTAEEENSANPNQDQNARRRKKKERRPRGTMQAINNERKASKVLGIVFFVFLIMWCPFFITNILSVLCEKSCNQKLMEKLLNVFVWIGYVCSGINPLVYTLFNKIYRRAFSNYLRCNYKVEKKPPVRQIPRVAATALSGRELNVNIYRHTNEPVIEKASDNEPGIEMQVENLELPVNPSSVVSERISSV

On to `COc1ccc2c3c([nH]c2c1)CCN1CCCC1C3` (stereo not drawn) [Compound 1, 9-methoxy-1,2,3,5,6,7,12,12a-octahydropyrrolo[1′,2′:1,7]azepino[4,5-b]indole], for which the IC50 – broadly, the concentration at which inhibition is half-maximal – in test [1] lay within 1 to 10 µM. In test [2], the EC50 (in general, the concentration giving half of the maximal effect) was above 10 µM.
The like results for `COc1ccc2c3c([nH]c2c1)CC1CCCN1CC3` (stereo not drawn) [Compound 2, 9-methoxy-1,2,3,5,6,11,12,12a-octahydropyrrolo[1′,2′:1,2]azepino[4,5-b]indole] were, in that order, 1 to 10 µM and 1 to 10 µM.
For `Cn1c2c(c3ccccc31)CCN1CCCC1C2` (stereo not drawn) [Compound 3, 11-methyl-1,2,3,5,6,11,12,12a-octahydropyrrolo[1′,2′:1,2]azepino[4,5-b]indole], in test [1], the IC50 was 0.101 to 1 µM. For the same molecule, in test [2], the EC50 lay in the range of 0.101 to 1 µM.
For `c1ccc2c3c([nH]c2c1)CC1CCCN1CC3` (stereo not drawn) [Compound 4, 1,2,3,5,6,11,12,12a-octahydropyrrolo[1′,2′;1,2]azepino[4,5-b]indole], the IC50 in test [1] lay within 0.101 to 1 µM. Further, the EC50 in test [2] was in the range of 0.101 to 1 µM.
Molecule `COc1cccc2[nH]c3c(c12)CC1CCCN1CC3` (stereo not drawn) [Compound 5, 11-methoxy-1,2,3,5,6,7,12,12a-octahydropyrrolo[1′,2′:1,7]azepino[4,5-b]indole] returned an IC50 in test [1] of 0.101 to 1 µM. The concentration for a half-maximal effect (EC50) in test [2] fell in the range of 1 to 10 µM.
In the same order, the values of `Cn1c2c(c3ccccc31)CC1CCCN1CC2` (stereo not drawn) [Compound 6, 7-methyl-1,2,3,5,6,7,12,12a-octahydropyrrolo[1′,2′:1,7]azepino[4,5-b]indole] are 0.101 to 1 µM and 0.101 to 1 µM.
In turn, `c1ccc2c3c([nH]c2c1)CCN1CCCC1C3` (stereo not drawn) [Compound 7, 1,2,3,5,6,7,12,12a-octahydropyrrolo[1′,2′:1,7]azepino[4,5-b]indole] came in with an IC50 in test [1] of 0.101 to 1 µM. In test [2], the EC50 lay within 0.101 to 1 µM.
As to `FC(F)(F)c1ccc2c3c([nH]c2c1)CC1CCCN1CC3` (stereo not drawn) [Compound 12, 9-(trifluoromethyl)-1,2,3,5,6,11,12,12a-octahydropyrrolo[1′,2′:1,2]azepino[4,5-b]indole], the IC50 in test [1] lay in the range of 1 to 10 µM. Besides, the EC50 in test [2] was above 10 µM.
The like results for `FC(F)(F)Oc1ccc2c3c([nH]c2c1)CC1CCCN1CC3` (stereo not drawn) [Compound 13, 9-(trifluoromethoxy)-1,2,3,5,6,11,12,12a-octahydropyrrolo[1′,2′;1,2]azepino[4,5-b]indole] were, in that order, 1 to 10 µM and above 10 µM.
The like results for `COc1ccc2c3c([nH]c2c1)C[C@@H]1CCCN1CC3` [Compound 17, (S)-9-methoxy-1,2,3,5,6,11,12,12a-octahydropyrrolo[1′,2′:1,2]azepino[4,5-b]indole] were, in that order, 1 to 10 µM and above 10 µM.
The like results for `COc1ccc2c3c([nH]c2c1)C[C@H]1CCCN1CC3` [Compound 18, (R)-9-methoxy-1,2,3,5,6,11,12,12a-octahydropyrrolo[1′,2′:1,2]azepino[4,5-b]indole] were, in that order, 1 to 10 µM and above 10 µM.
In turn, `c1ccc2c3c([nH]c2c1)C[C@@H]1CCCN1CC3` [Compound 19, (S)-1,2,3,5,6,11,12,12a-octahydropyrrolo[1′,2′:1,2]azepino[4,5-b]indole] displayed an IC50 in test [1] of 0.101 to 1 µM. For the same molecule, the EC50 in test [2] fell in the range of 0.101 to 1 µM.
`c1ccc2c3c([nH]c2c1)C[C@H]1CCCN1CC3` [Compound 20, (R)-1,2,3,5,6,11,12,12a-octahydropyrrolo[1′,2′:1,2]azepino[4,5-b]indole] returned an IC50 in test [1] of 0.101 to 1 µM. In test [2], the EC50 was in the range of 0.01 to 0.1 µM.
In the same order, the values of `FC(F)(F)c1cccc2[nH]c3c(c12)CCN1CCCC1C3` (stereo not drawn) [Compound 21, 7-(trifluoromethyl)-1,2,3,5,6,11,12,12a-octahydropyrrolo[1′,2′:1,2]azepino[4,5-b]indole] are 0.101 to 1 µM and 0.101 to 1 µM.
The like results for `c1ccc2c3c([nH]c2c1)CCN1CCC[C@@H]1C3` [Compound 22, (R)-1,2,3,5,6,7,12,12a-octahydropyrrolo[1′,2′:1,7]azepino[4,5-b]indole] were, in that order, 0.101 to 1 µM and 0.101 to 1 µM.
The like results for `c1ccc2c3c([nH]c2c1)CCN1CCC[C@H]1C3` [Compound 23, (S)-1,2,3,5,6,7,12,12a-octahydropyrrolo[1′,2′:1,7]azepino[4,5-b]indole] were, in that order, 0.101 to 1 µM and 0.101 to 1 µM.
Regarding `COc1ccc2c3c([nH]c2c1)CCN1CCC[C@@H]1C3` [Compound 24, (R)-9-methoxy-1,2,3,5,6,7,12,12a-octahydropyrrolo[1′,2′:1,7]azepino[4,5-b]indole], in test [1], the IC50 fell in the range of 1 to 10 µM. The EC50 in test [2] lay in the range of 1 to 10 µM.
Molecule `COc1ccc2c3c([nH]c2c1)CCN1CCC[C@H]1C3` [Compound 25, (S)-9-methoxy-1,2,3,5,6,7,12,12a-octahydropyrrolo[1′,2′:1,7]azepino[4,5-b]indole] showed an IC50 in test [1] of 1 to 10 µM. Further, the EC50 in test [2] fell in the range of 1 to 10 µM.
The molecule `COc1cccc2[nH]c3c(c12)C[C@H]1CCCN1CC3` [Compound 26, (R)-11-methoxy-1,2,3,5,6,7,12,12a-octahydropyrrolo[1′,2′:1,7]azepino[4,5-b]indole] returned a half-maximal inhibitory concentration (IC50) in test [1] of 0.01 to 0.1 µM. For the same molecule, the EC50 in test [2] lay within 0.01 to 0.1 µM.
`COc1cccc2[nH]c3c(c12)C[C@@H]1CCCN1CC3` [Compound 27, (S)-11-methoxy-1,2,3,5,6,7,12,12a-octahydropyrrolo[1′,2′:1,7]azepino[4,5-b]indole] came in with an IC50 in test [1] of 0.101 to 1 µM. The EC50 in test [2] lay in the range of 0.101 to 1 µM.
On to `FC(F)(F)c1cccc2[nH]c3c(c12)CC1CCCN1CC3` (stereo not drawn) [Compound 28, 11-(trifluoromethyl)-1,2,3,5,6,7,12,12a-octahydropyrrolo[1′,2′:1,7]azepino[4,5-b]indole], for which the IC50 in test [1] is 0.01 to 0.1 µM. In addition, the EC50 in test [2] lay in the range of 0.101 to 1 µM.

(Values after US20260176253A1 (priority 2021, published 2026).)
